Key:
Assay type in all cases: nucleic-acid assay
[1] = system: Nucleic Acid; test: Binding affinity to 5'-AGT-TATA-TTT-TATA-ACT at 200 uM by HPLC/MS analysis
[2] = system: Nucleic Acid; test: Binding affinity to 5'-TATA-TGA-TTT-TCA-TATA at 200 uM by HPLC/MS analysis
[3] = system: Nucleic Acid; test: Binding affinity to 5'-TGA-TATA-TTT-TATA-TCA at 200 uM by HPLC/MS analysis
[4] = system: Nucleic Acid; test: Binding affinity to 5'-TATA-AGA-TTT-TCT-TATA at 200 uM by HPLC/MS analysis
[5] = system: Nucleic Acid; test: Binding affinity to 5'-TGT-TATA-TTT-TATA-ACA at 200 uM by HPLC/MS analysis
[6] = system: Nucleic Acid; test: Binding affinity to 5'-TATA-TGT-TTT-ACA-TATA at 200 uM by HPLC/MS analysis
[7] = system: Nucleic Acid; test: Binding affinity to 5'-TATA-AGT-TTT-ACT-TATA at 200 uM by HPLC/MS analysis
[8] = system: Nucleic Acid; test: Binding affinity to 5'-AGA-TATA-TTT-TATA-TCT at 200 uM by HPLC/MS analysis

K [1]: 0.096 µM/min | K [2]: > 0.364 µM/min | K [3]: 0.196 µM/min | K [4]: 0.091 µM/min | K [5]: > 0.808 µM/min | K [6]: > 0.506 µM/min | K [7]: 0.124 µM/min | K [8]: 0.132 µM/min
SMILES: COC(=O)c1cc(NC(=O)c2cc(NC(=O)CCCOc3cc4c(cc3OC)C(=O)N3CCC[C@H]3C=N4)cn2C)cn1C
